“Also recorded” adds a separate entry of the source.
Key:
KG-1 = test: Differentiation of AML cell line (CD11b/CD14 flow cytometry, NBT assay, Wright-Giemsa staining); assay type: cell-based; details: KG-1, FAB M0/M1
Method: (§1) The AML cell lines were dosed with the varying concentrations of ASLAN003 and differentiation of the cell lines were observed via upregulation of CD11b and CD14 on the cell surface via flow cytometry. Differentiation was also determined using the NBT assay and from morphological observations from Wright-Giemsa staining.

NB-4 = test: as above; assay type: cell-based; details: NB-4, FAB M3
Method: as §1

HL-60 = test: as above; assay type: cell-based; details: HL-60, FAB M2
Method: as §1

MOLM-14 = test: as above; assay type: cell-based; details: MOLM-14, FAB M5
Method: as §1

THP-1 = test: as above; assay type: cell-based; details: THP-1, FAB M5
Method: as §1

MOLM-14 xenograft = MOLM-14 xenograft model in NSG mice; assay type: in vivo
Method: NSG mice were inoculated with MOLM-14 cells via tail vein injection. Treatment by oral gavage with either ASLAN003 (50 mg/kg QD) or vehicle control was started 3 days past inoculation. 11 mice were treated in the ASLAN003 group and 12 mice were treated in the vehicle control group. The following data is collected at the end of the experiment: […]

[1] = test system: Multiple myeloma (MM) cell lines; test: CellTiter-Glo Luminescent Cell Viability Assay, MM cell lines; assay type: cell-based, human; details: increasing dose, 48 hours
Method: (§2) Multiple myeloma (MM) or chronic myeloid leukaemia (CML) cell lines were seeded at 20,000 cells in 100 μL of medium in 96-well format and treated with increasing dose of ASLAN003 for 48 hours. DMSO was used as control. The CellTiter-Glo® Luminescent Cell Viability Assay, which is a homogeneous method of determining the number of viable cells in culture based on quantitation of the ATP present, i.e. an indicator of metabolically active cells was then performed on the cell lines.

[2] = test system: chronic myeloid leukaemia (CML) cell lines; test: CellTiter-Glo Luminescent Cell Viability Assay, CML cell lines; assay type: cell-based, human; details: CML cell lines (K562, KCL-22), increasing dose, 48 hours
Method: as §2

[3] = test system: AD537 primary MDS bone marrow cells; test: FACs analysis of primary MDS bone marrow cells; assay type: cell-based; details: 96 hours
Method: (§3) AD345 primary MDS cells (refractory cytopenia with multilineage dysplasia, normal karyotype) and AD537 primary MDS bone marrow cells (refractory cytopenia with multilineage dysplasia, karyotype 46, XY, 43.1% myeloid) were treated with ASLAN003 (4000 nM) or DMSO control for 96 hours. A FACs analysis was then performed using Pacific blue dye. The AD537 cells were also stained with Wright-Giemsa and NBT reduction.

AD345 primary MDS cells = test: FACs analysis of primary MDS cells; assay type: cell-based; details: 96 hours
Method: as §3

**Q.** Which results are given for `COc1cccc(-c2cc(F)c(Nc3ncccc3C(=O)O)c(F)c2)c1` [ASLAN003, 2-(3,5-difluoro-3′-methoxybiphenyl-4-ylamino) nicotinic acid]?
**A.** ASLAN003 Differentiation (KG-1): myeloid differentiation effects of ASLAN003 were observed; also recorded: Positive; ASLAN003 Differentiation (NB-4): did not induce observed differentiation effects; also recorded: Negative; ASLAN003 Differentiation (HL-60): did not induce observed differentiation effects; also recorded: Negative; ASLAN003 Differentiation (MOLM-14): myeloid differentiation effects of ASLAN003 were observed; also recorded: Positive; ASLAN003 Differentiation (THP-1): myeloid differentiation effects of ASLAN003 were observed; also recorded: Positive; Survival of MOLM-14 xenograft mice (MOLM-14 xenograft; 50 mg/kg QD oral gavage, vs vehicle): significantly (p=0.031) prolonged survival; Median survival (MOLM-14 xenograft; MOLM-14 xenograft NSG mice, 50 mg/kg QD oral gavage from 3 days past inoculation, vehicle group 24 days): 27 days; Leukaemic burden (percentage of CD45+ cells) (MOLM-14 xenograft; bone marrow, peripheral blood, spleen and liver, 50 mg/kg QD oral gavage, flow cytometry): significantly decreased leukaemic burden; Differentiation of leukaemic cells (hCD11b+ and hCD14+ cells) (MOLM-14 xenograft; bone marrow, 50 mg/kg QD oral gavage, flow cytometry): significantly induced differentiation; Cell viability [1]: has the ability to reduce the viability; Cell viability [2]: has the ability to reduce the viability; increase in CD13+CD33+ cells ([3]; AD537, 4 μM): about 12.3%; increase in CD14+ cells ([3]; AD537, 4 μM): about 20%; increase of CD11b+ cells ([3]; AD537, 4 μM): ~30%; viability at 4 µM ([3]; Bone marrow cell, AD537, 4000 nM, DMSO control 84.5%, read-out: % viable cells): 73%; increase in CD11b+CD14+ cells (AD345 primary MDS cells; AD345, 4 μM): about 11%; increase in CD13+CD33+ cells (AD345 primary MDS cells; AD345, 4 μM): about 12.3%; viability at 4 µM (AD345 primary MDS cells; AD345, 4000 nM, DMSO control 93%, read-out: % viable cells): 86.5%

Source: US11311548B2, “Cancer therapy” (Aslan Pharmaceuticals Pte. Ltd., priority 2017, dated 2022)
